Results as given in patent US9949938B2, “CoQ10 (ubiquinone, ubiquinol), vitamin A (retinoid acid, retinol), vitamin E (tocotrienol, tocopherol) and methods of use” (AMERICAN RIVER NUTRITION, priority 2013, dated 2018).

Experiments:
[1] = gastric conditions, pH<2, 30 minutes; cited from earlier work
[2] = CoQ10 with and without tocotrienol in hydrochloric acid (pH<2), 30 minutes, simulated gastric conditions; type: physicochemical; details: in the presence of tocotrienol versus without; HCl pH<2, 30 minutes
Protocol: 100 mg CoQ10 (ubiquinone or ubiquinol), with and without tocotrienol, was placed in a beaker with acid (hydrochloric acid) (pH<2) for 30 minutes to simulate gastric conditions.

CoQ10 content (both ubiquinone or ubiquinol) after acid [2]	Structure (SMILES)	ubiquinol converted to ubiquinone [1]
–	COc1c(O)c(C)c(C/C=C(\C)CC/C=C(\C)CC/C=C(\C)CC/C=C(\C)CC/C=C(\C)CC/C=C(\C)CC/C=C(\C)CC/C=C(\C)CC/C=C(\C)CCC=C(C)C)c(O)c1OC [ubiquinol]	about 50%
higher content	COC1=C(OC)C(=O)C(C/C=C(\C)CC/C=C(\C)CC/C=C(\C)CC/C=C(\C)CC/C=C(\C)CC/C=C(\C)CC/C=C(\C)CC/C=C(\C)CC/C=C(\C)CCC=C(C)C)=C(C)C1=O [CoQ10, 2,3-dimethoxy-5-methyl-6-decaprenil-1,4-benzoquinone]	–
